According to patent publication US9901625B2, “Methods of regulating uptake and transcellular transport of leukocytes and therapeutics” (University of Maryland, College Park, priority 2011, dated 2018):

Tests used:
[1] = system: activated HUVEC monolayers; test: Transport of WBCs across activated HUVEC monolayers on a porous membrane (SDF1-α chemoattractant); format: cell-based, human; settings: for WBC transmigration across HUVEC monolayer: 30 min, 37° C., WBCs counted in bottom chamber; for WBC capacity to transmigrate across the porous filter in the absence of an endothelial monolayer: no HUVEC monolayer
Method: A confluent EC monolayer from human umbilical vein ECs was grown on a porous membrane through which peripheral lymphocytes isolated from healthy individuals (wild-type WBCs) can transmigrate, driven by the presence of the chemoattractant SDF1-α in the chamber underneath the ECs. Under control conditions, 77.7±2.3% wild-type WBCs underwent transmigration by 30 min, which was abrogated when K562 cells lacking the ICAM-1- and VCAM-1-binding integrins LFA-1 and VLA-4, respectively, were used (FIG. 1A). Transport of either peripheral blood lymphocytes (control) or K562 cells lacking ICAM-1- and VCAM-1-binding integrins of white blood cells (WBCs) across activated HUVEC monolayers assessed at 37° C. by counting WBCs in the bottom chamber underneath HUVEC, 30 min after adding WBCs to the upper chamber above HUVECs (black bars). Transmigration was alternatively performed prior (control) or after blocking integrins LFA-1 or VLA-4 on peripheral blood lymphocytes using monoclonal antibodies. The horizontal dashed line in FIG. 1A represents WBC transmigration at 4° C.
Data are normalized to control values, and represent mean and standard errors of the mean (n≧3 experiments). *, P≦0.001 by Student's t test.
Further, transport of activated peripheral blood lymphocytes (WBCs) across activated HUVEC monolayers was assessed at 37° C. by counting WBCs in the bottom chamber underneath HUVEC 30 min after adding WBCs to the upper chamber above HUVECs (FIG. 2A black bars). Absence of HUVEC monolayer was a control (FIG. 2A white bars). Transmigration was performed in the absence (control) or presence of filipin, methyl-β-cyclodextrin (Cdx) or amiloride. In accord with previous works (Tilghman R W, et al. (2002) FEBS Lett 525:83-87; Barreiro O, et al. (2005) Blood 105:2852-2861; Millan et al., 2006), WBC transmigration was inhibited by methyl-β-cyclodextrin (Cdx; 48.1±4.8% of control; FIG. 2A), an agent that depletes cholesterol from cells. […] Instead, amiloride, which affects Na^+/H^+ exchangers (Kleyman T R, et al. (1988) J Membr Biol 105:1-21) and inhibits CAM-mediated endocytosis (Muro S, et al. (2003) J Cell Sci 11 6:1599-1609), reduced WBC transmigration even to a greater extent than Cdx (38.6±3.7% of control; FIG. 2A).

activated HUVECs [2] = test: Paracellular vs transcellular transmigration of WBCs over HUVECs on coverslips (podosome scoring); format: cell-based, human; settings: for WBC TEM (WBCs projecting podosomes into/under HUVECs): 30 min, 37° C.; for arrested WBCs located away from the EC borders / diapedesis of WBCs located away from the EC borders: EC center; for paracellular TEM (transmigrating WBCs at EC border) / transcellular TEM (transmigrating WBCs at EC center): normalized to control; for paracellular TEM (transmigrating WBCs at EC border): <3 μm from cell border; for transcellular TEM (transmigrating WBCs at EC center): ≧3 μm from cell border
Method: The role of lipid domains and CAM-mediated endocytosis in paracellular versus transcellular diapedesis of leukocytes was examined. To distinguish between paracellular and transcellular TEM, WBCs were labeled with green-fluorescent calcein and diapedesis was evaluated by fluorescence and scanning electron microscopy as WBCs projecting podosomes (versus round-shaped WBCs) into or under ECs growing over glass coverslips (FIG. 3; FIG. 4).
Data are normalized to control values (horizontal dashed lines) and represent mean and standard errors of the mean (n≧30 WBCs). *, P≦0.05; **, P≦0.01; ***, P≦0.001 by Student's t test.

HUVECs = test: Endocytosis of anti-ICAM beads by ECs in culture (HUVECs); format: cell-based, human; settings: values normalized to controls
ICAM-1 = settings: cited from earlier work
activated HUVECs [3] = test: Recruitment of molecules at sites of endothelial ICAM-1 engagement by anti-ICAM beads; format: cell-based, human; settings: 15 min
activated HUVECs [4] = test: Binding of activated WBCs to activated HUVECs (fluorescence microscopy); format: cell-based, human; settings: 30 min, 37° C.
Excerpt: The horizontal dashed line represents binding of negative control K562 WBCs, which lack ICAM-I- and VCAM-1-binding integrins. Data are normalized to control values, and represent mean and standard errors of the mean (n≧3 experiments). *, P≦0.001 by Student's t test.

Row | Molecule | WBC transmigration across HUVEC monolayer [1] | WBC TEM (WBCs projecting podosomes into/under HUVECs) (activated HUVECs [2]) | Internalization (%) of anti-ICAM beads (HUVECs) [%] | Formation of endocytic vesicles upon ICAM-1 engagement by anti-ICAM particles (ICAM-1) | ceramide enrichment in areas of bead engulfment (activated HUVECs [3]) [% decrease] | WBC capacity to transmigrate across the porous filter in the absence of an endothelial monolayer [1] | affected WBC binding to ECs (activated HUVECs [4]) | arrested WBCs located away from the EC borders (activated HUVECs [2]) | diapedesis of WBCs located away from the EC borders (activated HUVECs [2]) | paracellular TEM (transmigrating WBCs at EC border) (activated HUVECs [2]) [%] | transcellular TEM (transmigrating WBCs at EC center) (activated HUVECs [2]) [%] | ICAM-1 enrichment in areas of bead engulfment (activated HUVECs [3]) [% decrease] | level of transcellular TEM (activated HUVECs [2]; FIG. 14C) | paracellular TEM (activated HUVECs [2]; FIG. 14C)
1 | CCCCC[C@@H](O)[C@H]1C(=O)O[C@H](C)[C@@H](O)/C=C/C=C/C=C/C=C/C=C(\C)[C@@H](O)C[C@H](O)C[C@H](O)C[C@H](O)C[C@H](O)C[C@H](O)C[C@@H]1O [filipin] | 88.0±7.7 % of control | 108.7±8.6 % of control | 107.2 ± 1.5 | not affected | – | – | – | – | – | – | – | – | – | –
2 | CCN(c1nc(N)c(C(=O)N=C(N)N)nc1Cl)C(C)C [EIPA, 5′-(N-ethyl-N-isopropyl)amiloride] | – | – | – | – | 35.6 | – | – | – | – | – | – | – | – | –
3 | N=C(N)NC(=O)c1nc(Cl)c(N)nc1N [amiloride] | 38.6±3.7 % of control | 63.8±7.3 % of control | 13.8 ± 3.3 | – | – | Neither Cdx nor amiloride impaired | Neither | 209.1±68.1 % of control | 56.0±27.5 % of control | 139.6±34.1 | 65.5±29.7 | 22.9 | – | –
4 | CN(C)CCCN1c2ccccc2CCc2ccccc21 [imipramine] | – | 46.6±7.6 % of control | 61.9 ± 6.7 | – | 23.6 | – | – | – | – | – | – | – | decreased the level of transcellular TEM | paracellular TEM increased
5 | methyl-β-cyclodextrin [Cdx] | 48.1±4.8 % of control | 80.5±6.8 % of control | – | – | – | Neither Cdx nor amiloride impaired | Neither | 170.5±36.2 % of control | 71.5±14.6 % of control | 124.9±17.1 | 78.3±14.9 | 43 | – | –
